# Residues, ends and D or L forms follow the SMILES beside them. *: point of attachment. Cbz = O=C(OCc1ccccc1)*
# Key:
# [1] = tested on: HA-DISC1, HEK293 cells; assay: HA-DISC1 protein level in transfected HEK293 cells; assay type: cell-based, human; details: MG132 10 μM, Figure 1c, n=3
# Procedure: (§1) HEK293 cells were sourced from ATCC (CRL-1573) and cultured as described in the manufacturer’s protocol. DMEM (SIGMA) supplemented with 10% fetal bovine serum, 2 mM L-glutamine, […] penicillin-streptomycin at 37 °C in a humidified atmosphere of 5% CO2. The cells were passaged at about 80% confluency. Cells were transfected with plasmid DNA using polyfect transfection reagent (Qiagen) according to the manufacturer’s instructions. HEK293 cells were treated with the pharmacological agents cycloheximide (C7698) and MG132 (M7449) (Sigma-Aldrich) or DISC1 disruptor peptides (custom synthesized by Severn Biotech) as described in the text.
# (§2) Briefly, detergent-soluble proteins were isolated from cells by disruption in lysis buffer 20 mM Tris-HCl (pH 7.5), 150 mM NaCl, 1 mM Na2EDTA, 1 mM EGTA, 1% triton, 2.5 mM sodium pyrophosphate, 1 mM β-glycerophosphate, 1 mM Na3VO4, 1 μg ml^–1 leupeptin, 10 mM DTT with Roche protease inhibitor, phosSTOP (Roche, 04906837001). Detergent-insoluble proteins were removed by centrifugation at 10 000 g for 10 min, and the soluble fraction was retained. Cell lysates were adjusted to equal protein amount (1 μg μl^–1) using cell lysis buffer. Cell lysates normalized for the protein concentration were incubated with mouse IgG (Millipore, 12487) Protein A agarose beads for 2 h at 4 °C. […] The complexes were analyzed on SDS PAGE. […]
# [2] = tested on: DISC1, HEK293 cells; assay: Endogenous DISC1 protein level in HEK293 cells, western blot; assay type: cell-based, human; details: MG132 10–60 μM, 1 h, Figure 1b
# Procedure: as §1, §2
smiles,measurement,setting,value
CC(C)C[C@@H](C=O)NC(=O)[C@H](CC(C)C)NC(=O)[C@H](CC(C)C)NC(=O)OCc1ccccc1 [MG132] (Cbz-Leu-Leu-Leu-aldehyde),HA-DISC1 protein expression after MG132,[1],transiently increased
same,endogenous DISC1 level after MG132,[2],elevated

# — paper PMC5984089, “FBXW7 regulates DISC1 stability via the ubiquitin-proteosome system” (Molecular Psychiatry, 2017)
